Some test systems named below: EKVX NSCLC; IGROV1 ovarian; UACC-62 melanoma; SW-620 colon; SNB-19 CNS; SNB-75 CNS; M14 melanoma; COLO 205 colon; K-562 leukemia; OVCAR-4 ovarian.
What all share (assay): NCI-60 cell line screen, 48 h

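Values below derive from 48-hour exposures of cells grown in 96-well plates, with endpoints linearly interpolated between the two concentrations bracketing the appropriate inhibition level. Here, GI50 denotes the concentration required for 50% inhibition of growth. TGI marks complete inhibition of growth.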

As to `O=C1NC(=O)C(c2ccccc2Cl)=C1Nc1cccc(O)c1`, the GI50 in the assay on EKVX NSCLC was over 22500 nM; with IGROV1 ovarian, over 25 µM; in the assay on UACC-62 melanoma, 2250 nM; in the assay with SW-620 colon it was 1470 nM; with SNB-19 CNS, 21.4 µM; in the assay with SNB-75 CNS, 6.76 µM. The GI50 in the assay on M14 melanoma is over 25000 nM; in the assay with COLO 205 colon, 7170 nM; in the assay with K-562 leukemia, 1320 nM; in the assay on OVCAR-4 ovarian, 7.02 µM. Further, the TGI was over 25 µM in the assay on EKVX NSCLC; over 25 µM in the assay with IGROV1 ovarian; over 25 µM with UACC-62 melanoma; over 25 µM in the assay with SW-620 colon; over 25 µM in the assay with SNB-19 CNS; over 20.2 µM in the assay on SNB-75 CNS. Moreover, the TGI in the assay with M14 melanoma was over 25 µM; in the assay on COLO 205 colon, over 21.6 µM; in the assay on K-562 leukemia, over 25 µM; in the assay on OVCAR-4 ovarian it was over 25 µM.
Consider `Cc1c(C(=O)CC(=O)C(=O)NC2C3CC4CC(C3)CC2C4)[n+](=O)c2ccccc2n1[O-]` (stereo not given), for which the TGI with EKVX NSCLC, in the assay on IGROV1 ovarian, with UACC-62 melanoma, with SW-620 colon, in the assay with SNB-19 CNS and in the assay on SNB-75 CNS was over 100 µM throughout. For the same compound, the TGI with M14 melanoma, in the assay on COLO 205 colon, in the assay on K-562 leukemia and in the assay with OVCAR-4 ovarian was over 100 µM in each case.
`Cc1ccc(-c2cc3nc(-c4ccccc4)nc(C(Cl)Cl)n3n2)cc1`: the GI50 in the assay on EKVX NSCLC was 752 nM; in the assay with IGROV1 ovarian, 1.43 µM; with UACC-62 melanoma, 933 nM; with SW-620 colon it was 851 nM; in the assay with SNB-19 CNS, 0.759 µM; with SNB-75 CNS, 0.295 µM. Further, the GI50 in the assay on M14 melanoma is over 50000 nM; in the assay on COLO 205 colon it was 1060 nM; in the assay with K-562 leukemia, 1760 nM; in the assay on OVCAR-4 ovarian, 0.671 µM. Moreover, the TGI was 1.51 µM in the assay with EKVX NSCLC; over 50 µM in the assay on IGROV1 ovarian; 2.1 µM in the assay with UACC-62 melanoma; 2.29 µM in the assay with SW-620 colon; 1.73 µM in the assay on SNB-19 CNS; 1.04 µM in the assay with SNB-75 CNS. The TGI with M14 melanoma was over 50 µM; in the assay with COLO 205 colon, 2.34 µM; in the assay on K-562 leukemia, over 50 µM; in the assay with OVCAR-4 ovarian, 1.73 µM.
With `O=C1/C(=C\c2cccs2)Oc2ccccc21`, the TGI in the assay on EKVX NSCLC, in the assay with IGROV1 ovarian, in the assay on UACC-62 melanoma, with SW-620 colon, in the assay with SNB-19 CNS and in the assay with SNB-75 CNS was over 100 µM throughout. Further, the TGI with M14 melanoma, with COLO 205 colon, with K-562 leukemia and in the assay on OVCAR-4 ovarian was over 100 µM throughout.
`COc1cccc2c1C1=CC(=O)CCC1C(C)(C)O2` (stereo not given): the TGI was over 100 µM in the assay on EKVX NSCLC; over 100 µM in the assay with IGROV1 ovarian; over 100 µM in the assay on UACC-62 melanoma; 27.3 µM in the assay with SW-620 colon; over 100 µM in the assay with SNB-19 CNS; over 100 µM in the assay on SNB-75 CNS. Also, the TGI in the assay with M14 melanoma, in the assay on COLO 205 colon, with K-562 leukemia and in the assay on OVCAR-4 ovarian was over 100 µM in each case.
With `Cc1cc2occ(C)c(=O)c2c2c1OC(C)(C)S2`, the TGI in the assay with EKVX NSCLC, with IGROV1 ovarian, with UACC-62 melanoma, in the assay on SW-620 colon, in the assay with SNB-19 CNS and in the assay on SNB-75 CNS was over 100 µM each time. Besides, the TGI with M14 melanoma, with COLO 205 colon, with K-562 leukemia and in the assay on OVCAR-4 ovarian was over 100 µM throughout.
For `Cc1ccc2c(c1)sc(-c1ccc(N(C)C)cc1)[n+]2C`, the GI50 in the assay on EKVX NSCLC is 379 nM; in the assay on IGROV1 ovarian, 3.77 µM; with UACC-62 melanoma, 2070 nM; with SW-620 colon it was 2280 nM; in the assay with SNB-19 CNS, 1.95 µM; in the assay on SNB-75 CNS, 4.55 µM. The GI50 in the assay with M14 melanoma was 1790 nM; with COLO 205 colon, 368 nM; with K-562 leukemia it was 242 nM; with OVCAR-4 ovarian it was 1.58 µM. The TGI in the assay on EKVX NSCLC is over 100 µM; in the assay with IGROV1 ovarian it was over 100 µM; with UACC-62 melanoma, 15.5 µM; in the assay on SW-620 colon, over 66 µM; in the assay on SNB-19 CNS it was 21 µM; in the assay with SNB-75 CNS it was 34.8 µM. For the same compound, the TGI was over 38 µM in the assay with M14 melanoma, 1.44 µM in the assay on COLO 205 colon, over 50.3 µM in the assay with K-562 leukemia and over 100 µM in the assay with OVCAR-4 ovarian.
Consider `COC1C(=O)CCC2(CO2)C1(O)C1(C)OC1CCC(C)C` (stereo not given), for which the TGI in the assay with EKVX NSCLC, in the assay with IGROV1 ovarian, with UACC-62 melanoma, with SW-620 colon, in the assay on SNB-19 CNS and with SNB-75 CNS was over 100 µM throughout. The TGI in the assay on M14 melanoma, in the assay with COLO 205 colon, with K-562 leukemia and in the assay on OVCAR-4 ovarian was over 100 µM each time.
Turning to `CCOC(=O)/C=C/c1ccc(C(=O)OCC)[nH]1`, the GI50 in the assay on EKVX NSCLC is 9890 nM; with IGROV1 ovarian, 4.84 µM; in the assay on UACC-62 melanoma, 5230 nM; with SW-620 colon it was 1290 nM; in the assay with SNB-19 CNS, 24.7 µM; in the assay on SNB-75 CNS, 2.82 µM. The GI50 in the assay with M14 melanoma was 2820 nM; with COLO 205 colon, 2820 nM; in the assay on K-562 leukemia, 649 nM; with OVCAR-4 ovarian it was 20.3 µM. Besides, the TGI with EKVX NSCLC was over 100 µM; in the assay on IGROV1 ovarian it was over 100 µM; in the assay on UACC-62 melanoma, over 100 µM; in the assay with SW-620 colon it was over 100 µM; in the assay on SNB-19 CNS, over 100 µM; in the assay on SNB-75 CNS it was 35.9 µM. Also, the TGI in the assay with M14 melanoma is over 100 µM; in the assay with COLO 205 colon it was 8.38 µM; in the assay on K-562 leukemia, over 100 µM; with OVCAR-4 ovarian, over 100 µM.

These data come from PubChem BioAssay (NCI).
